# Assay results taken from ChEMBL document CHEMBL1201862, “PubChem BioAssay data set” (2004).
#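 Briefly, cells in 96-well plates were exposed to five compound concentrations for 48 h, and endpoints were estimated by linear interpolation. GI50 marks 50% less growth.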 Calls of active or inactive are those of the source. Cut-off read from the data, not from the text of the source: active = GI50 up to about 1.1 µM and inactive = higher.
# Assays:
# Assay in all cases: NCI tumour cell line growth inhibition, 48 h
# 786-0 = test system: 786-0
# A498 = test system: A498
# A549 = test system: A549
# ACHN = test system: ACHN
# BT-549 = test system: BT-549
# CAKI-1 = test system: CAKI-1
# CCRF-CEM = test system: CCRF-CEM
# COLO 205 = test system: COLO 205
# DU-145 = test system: DU-145
# EKVX = test system: EKVX
# HCT-116 = test system: HCT-116
# HCT-15 = test system: HCT-15
# HL-60 = test system: HL-60
# HOP-62 = test system: HOP-62
# HOP-92 = test system: HOP-92
# HT-29 = test system: HT-29
# Hs-578T = test system: Hs-578T
# IGROV-1 = test system: IGROV-1
# K562 = test system: K562
# KM12 = test system: KM12
# M14 = test system: M14
# MCF7 = test system: MCF7
# MDA-MB-231 = test system: MDA-MB-231
# MDA-MB-435 = test system: MDA-MB-435
# MDA-N = test system: MDA-N
# MOLT-4 = test system: MOLT-4
# Malme-3M = test system: Malme-3M
# NCI-H226 = test system: NCI-H226
# NCI-H23 = test system: NCI-H23
# NCI-H460 = test system: NCI-H460
# NCI-H522 = test system: NCI-H522
# NCI/ADR-RES = test system: NCI/ADR-RES
# OVCAR-3 = test system: OVCAR-3
# OVCAR-4 = test system: OVCAR-4
# OVCAR-5 = test system: OVCAR-5
# OVCAR-8 = test system: OVCAR-8
# PC-3 = test system: PC-3
# RPMI-8226 = test system: RPMI-8226
# RXF 393 = test system: RXF 393
# SF-268 = test system: SF-268
# SF-295 = test system: SF-295
# SF-539 = test system: SF-539
# SK-MEL-28 = test system: SK-MEL-28
# SK-MEL-2 = test system: SK-MEL-2
# SK-MEL-5 = test system: SK-MEL-5
# SK-OV-3 = test system: SK-OV-3
# SN12C = test system: SN12C
# SNB-19 = test system: SNB-19
# SNB-75 = test system: SNB-75
# SR = test system: SR
# SW-620 = test system: SW-620
# T47D = test system: T47D
# U-251 = test system: U-251
# UACC-257 = test system: UACC-257
# UACC-62 = test system: UACC-62
# UO-31 = test system: UO-31
# HCC 2998 = test system: HCC 2998
# LOX IMVI = test system: LOX IMVI
# TK-10 = test system: TK-10
structure (smiles),measurement,setting,value
CCC12CC(c3ccccc3)C(C(=O)N1)C(=O)N2 (stereo not drawn),GI50,786-0,> 100 µM (inactive)
same,GI50,A498,> 100 µM (inactive)
same,GI50,A549,> 100 µM (inactive)
same,GI50,ACHN,> 100 µM (inactive)
same,GI50,BT-549,> 100 µM (inactive)
same,GI50,CAKI-1,> 100 µM (inactive)
same,GI50,CCRF-CEM,> 100 µM (inactive)
same,GI50,COLO 205,> 100 µM (inactive)
same,GI50,DU-145,> 100 µM (inactive)
same,GI50,EKVX,> 100 µM (inactive)
same,GI50,HCT-116,> 100 µM (inactive)
same,GI50,HCT-15,> 100 µM
same,GI50,HL-60,> 100 µM (inactive)
same,GI50,HOP-62,> 100 µM (inactive)
same,GI50,HOP-92,> 100 µM (inactive)
same,GI50,HT-29,> 100 µM (inactive)
same,GI50,Hs-578T,> 100 µM (inactive)
same,GI50,IGROV-1,> 100 µM (inactive)
same,GI50,K562,> 100 µM (inactive)
same,GI50,KM12,> 100 µM (inactive)
same,GI50,M14,> 100 µM (inactive)
same,GI50,MCF7,> 100 µM (inactive)
same,GI50,MDA-MB-231,> 100 µM (inactive)
same,GI50,MDA-MB-435,> 100 µM (inactive)
same,GI50,MDA-N,> 100 µM (inactive)
same,GI50,MOLT-4,> 100 µM (inactive)
same,GI50,Malme-3M,> 100 µM (inactive)
same,GI50,NCI-H226,> 100 µM (inactive)
same,GI50,NCI-H23,> 100 µM (inactive)
same,GI50,NCI-H460,> 100 µM (inactive)
same,GI50,NCI-H522,> 100 µM (inactive)
same,GI50,NCI/ADR-RES,> 100 µM (inactive)
same,GI50,OVCAR-3,> 100 µM (inactive)
same,GI50,OVCAR-4,> 100 µM (inactive)
same,GI50,OVCAR-5,> 100 µM (inactive)
same,GI50,OVCAR-8,> 100 µM (inactive)
same,GI50,PC-3,> 100 µM (inactive)
same,GI50,RPMI-8226,> 100 µM (inactive)
same,GI50,RXF 393,> 100 µM (inactive)
same,GI50,SF-268,> 100 µM (inactive)
same,GI50,SF-295,> 100 µM (inactive)
same,GI50,SF-539,> 100 µM (inactive)
same,GI50,SK-MEL-28,> 100 µM (inactive)
same,GI50,SK-MEL-2,> 100 µM (inactive)
same,GI50,SK-MEL-5,> 100 µM (inactive)
same,GI50,SK-OV-3,> 100 µM (inactive)
same,GI50,SN12C,> 100 µM (inactive)
same,GI50,SNB-19,> 100 µM (inactive)
same,GI50,SNB-75,65.3 µM (inactive)
same,GI50,SR,> 100 µM (inactive)
same,GI50,SW-620,> 100 µM (inactive)
same,GI50,T47D,> 100 µM (inactive)
same,GI50,U-251,> 100 µM (inactive)
same,GI50,UACC-257,> 100 µM (inactive)
same,GI50,UACC-62,> 100 µM (inactive)
same,GI50,UO-31,> 100 µM (inactive)
CC1(C)CN=C(c2ccc3ccccc3c2O)N1,GI50,786-0,> 100 µM (inactive)
same,GI50,A498,> 100 µM (inactive)
same,GI50,A549,23.6 µM (inactive)
same,GI50,ACHN,> 100 µM (inactive)
same,GI50,BT-549,> 100 µM (inactive)
same,GI50,CAKI-1,> 100 µM (inactive)
same,GI50,CCRF-CEM,> 100 µM (inactive)
same,GI50,COLO 205,> 100 µM (inactive)
same,GI50,DU-145,> 100 µM (inactive)
same,GI50,EKVX,> 100 µM (inactive)
same,GI50,HCC 2998,> 100 µM (inactive)
same,GI50,HCT-116,> 100 µM (inactive)
same,GI50,HCT-15,> 100 µM
same,GI50,HL-60,> 100 µM (inactive)
same,GI50,HOP-62,> 100 µM (inactive)
same,GI50,HOP-92,> 100 µM (inactive)
same,GI50,Hs-578T,> 100 µM (inactive)
same,GI50,IGROV-1,> 100 µM (inactive)
same,GI50,K562,> 100 µM (inactive)
same,GI50,KM12,> 100 µM (inactive)
same,GI50,LOX IMVI,> 100 µM (inactive)
same,GI50,M14,> 100 µM (inactive)
same,GI50,MCF7,> 100 µM (inactive)
same,GI50,MDA-MB-231,> 100 µM (inactive)
same,GI50,MDA-MB-435,> 100 µM (inactive)
same,GI50,MDA-N,> 100 µM (inactive)
same,GI50,MOLT-4,> 100 µM (inactive)
same,GI50,NCI-H23,> 100 µM (inactive)
same,GI50,NCI-H460,> 100 µM (inactive)
same,GI50,NCI/ADR-RES,> 100 µM (inactive)
same,GI50,OVCAR-3,22.2 µM (inactive)
same,GI50,OVCAR-4,> 100 µM (inactive)
same,GI50,OVCAR-5,> 100 µM (inactive)
same,GI50,PC-3,> 100 µM (inactive)
same,GI50,RPMI-8226,> 100 µM (inactive)
same,GI50,SF-268,> 100 µM (inactive)
same,GI50,SF-295,2.27 µM (inactive)
same,GI50,SF-539,> 100 µM (inactive)
same,GI50,SK-MEL-28,> 100 µM (inactive)
same,GI50,SK-MEL-2,> 100 µM (inactive)
same,GI50,SK-MEL-5,> 100 µM (inactive)
same,GI50,SN12C,> 100 µM (inactive)
same,GI50,SNB-19,> 100 µM (inactive)
same,GI50,SNB-75,> 100 µM (inactive)
same,GI50,SR,> 100 µM (inactive)
same,GI50,SW-620,> 100 µM (inactive)
same,GI50,T47D,> 100 µM (inactive)
same,GI50,TK-10,> 100 µM (inactive)
same,GI50,U-251,> 100 µM (inactive)
same,GI50,UACC-257,> 100 µM (inactive)
same,GI50,UACC-62,> 100 µM (inactive)
same,GI50,UO-31,> 100 µM (inactive)
